# Experimental data reported in paper PMC5735191, “Computational and biological profile of boronic acids for the detection of bacterial serine- and metallo-β-lactamases” (Scientific Reports, 2017).
# “And” between values parts separate entries of the source, which are not always exact repeats. Equal values may be shown once.
# Key:
# [1] = system: E. coli clinical isolate, plasmidic AmpC - DHA1; test: Susceptibility testing (MIC), synergy with ceftazidime; assay type: cell-based; conditions: E. coli, plasmidic AmpC - DHA1; antibiotic:inhibitor 1:1 (w/w)
# Method: (§1) The minimum inhibitory concentrations (MICs), for CAZ and CTX alone and in combination with boronic acids against resistant strains were determined (Table 2a,b).
# (§2) Susceptibility testing was performed in Mueller Hinton broth and interpreted following the guidelines of the National Committee for Clinical Laboratory Standards[70]. To test the inhibitory activity, the compounds were dissolved in DMSO, 50% in water, and further dilutions were performed using growth medium. In all cases tests were performed at a final DMSO concentration below 5%, avoiding unwanted DMSO inhibition effect on strains growth (blank test control with DMSO were performed). The MICs of cefotaxime and ceftazidime alone and in association were determined against several relevant Gram-negative clinical isolates, selected from the pathogen collection of the Spanish Network for Research in Infectious Pathology (REIPI; Spain). The selection was based on strains capability of producing β-lactamases of interest for the present study. The antibiotic:inhibitor ratio was 1:1 (w/w).
# [2] = system: E. coli clinical isolate, overproduction chromosomal AmpC; test: as above; assay type: cell-based; conditions: antibiotic:inhibitor 1:1 (w/w)
# Method: as §1, §2
# [3] = system: E. aerogenes clinical isolate, overproduction chromosomal AmpC; test: as above; assay type: cell-based; conditions: antibiotic:inhibitor 1:1 (w/w)
# Method: as §1, §2
# [4] = system: P. aeruginosa 49, overproduction chromosomal AmpC; test: as above; assay type: cell-based; conditions: antibiotic:inhibitor 1:1 (w/w)
# Method: as §1, §2
# [5] = system: P. aeruginosa 120, overproduction chromosomal AmpC; test: as above; assay type: cell-based; conditions: antibiotic:inhibitor 1:1 (w/w)
# Method: as §1, §2
# [6] = system: P. aeruginosa 12, overproduction chromosomal AmpC; test: as above; assay type: cell-based; conditions: antibiotic:inhibitor 1:1 (w/w)
# Method: as §1, §2
# [7] = system: E. cloacae clinical isolate, overproduction chromosomal AmpC; test: as above; assay type: cell-based; conditions: overproduction chromosomal AmpC, antibiotic:inhibitor 1:1 (w/w)
# Method: as §1, §2
# [8] = system: P. aeruginosa 199, overproduction chromosomal AmpC; test: as above; assay type: cell-based; conditions: antibiotic:inhibitor 1:1 (w/w)
# Method: as §1, §2
# [9] = system: P. aeruginosa 148, overproduction chromosomal AmpC; test: as above; assay type: cell-based; conditions: antibiotic:inhibitor 1:1 (w/w)
# Method: as §1, §2
# [10] = target: T1, NDM-1 (Klebsiella pneumoniae, UniProt C7C422); test: Enzyme inhibition assay (spectrophotometric, cephalothin reporter substrate); assay type: biochemical; set-up: His-tag; made in house; host or cells: E. coli BL21(DE3), pET-15-NDM-1; conditions: mean of two replicates, five inhibitor concentrations, Dixon plot; pH 7.5, 25 °C
# Method: (§3) To obtain a well-characterized inhibition profile for each selected boronic acids against each BLs in the panel, the compounds were tested for inhibitory activity. The protein panel included clinically- and epidemiologically-relevant β-lactamases, representatives of each structural class (A to D), as mentioned above. Each BL was overexpressed in E. coli, purified by chromatography and characterized as already reported. (SI, Table S1)[40]–[45].
# (§4) Reactions were initiated with addition of BL enzyme (the concentration values for each BL enzyme into the SI, Table S1 have been reported).
# [11] = system: CTX-M-15 E. coli clinical isolate; test: Susceptibility testing (MIC), synergy with cefotaxime; assay type: cell-based
# Method: as §1, §2
# [12] = system: KPC-2 K. pneumoniae clinical isolate; test: as above; assay type: cell-based; conditions: KPC-2 K. pneumoniae; antibiotic:inhibitor 1:1 (w/w)
# Method: as §1, §2
# [13] = system: VIM-2 P. aeruginosa clinical isolate; test: as above; assay type: cell-based; conditions: antibiotic:inhibitor 1:1 (w/w)
# Method: as §1, §2
# [14] = system: OXA-24 A. baumanii clinical isolate; test: as above; assay type: cell-based; conditions: antibiotic:inhibitor 1:1 (w/w)
# Method: as §1, §2
# [15] = system: NDM-1 E. coli clinical isolate; test: as above; assay type: cell-based; conditions: antibiotic:inhibitor 1:1 (w/w)
# Method: as §1, §2
# [16] = target: T2, AmpC β-lactamase (Pseudomonas aeruginosa, UniProt P24735); test: Enzyme inhibition assay (spectrophotometric, cephalothin reporter substrate); assay type: biochemical, P. aeruginosa; conditions: mean of two replicates, five inhibitor concentrations, Dixon plot, 100 μM cephalothin, pH 7.5, 25 °C
# T2 construct: made in house; host or cells: E. coli BL21(DE3), plasmid pET-9aAmpC
# Method: as §3, §4
# (§5) From the resulting inhibition percentages at each different inhibitor concentration and, assuming a competitive inhibition for the boronic compounds panel, it was possible to calculate the IC50 values from the Dixon plot 1/V vs [I], using the equation IC50 = […][61], where v0 is the rate of hydrolysis of the reporter substrate (v0 being the rate measured in the absence of inhibitor), q the y axis intercept and m the slope of the resulting linear regression.
# [17] = target: T3, CTX-M-15 (Escherichia coli, UniProt Q9EXV5); test: as above; assay type: biochemical; conditions: IC50 CTX-M-15, mean of two replicates, five inhibitor concentrations, Dixon plot; pH 7.5, 25 °C
# T3 construct: made in house; host or cells: E. coli BL21(DE3), pET-9a derivative (pET-CTX-M-15)
# Method: as §3, §4, §5
# [18] = target: T4, OXA-24 (Acinetobacter baumannii, UniProt Q8RLA6); test: as above; assay type: biochemical
# T4 construct: GST (N, cleaved yes); made in house; host or cells: E. coli DH5α, pGEX-2T-OXA-24
# Method: as §3, §4, §5
# [19] = target: T5, VIM-2 (Escherichia coli, UniProt Q5U7L7); test: as above; assay type: biochemical; set-up: made in house; host or cells: E. coli BL21(DE3), pET9-VIM-2; conditions: mean of two replicates, five inhibitor concentrations, Dixon plot; pH 7.5, 25 °C
# Method: as §3, §4
# [20] = target: T6, KPC-2 (Klebsiella pneumoniae, UniProt Q9F663); test: as above; assay type: biochemical; conditions: mean of two replicates, five inhibitor concentrations, Dixon plot; pH 7.5, 25 °C
# T6 construct: made in house; host or cells: E. coli BL21(DE3), pET9-KPC2
# Method: as §3, §4
# [21] = target: T1, NDM-1
# Method: 24h at 37 °C. Cells were recovered by centrifugation (4,500 rpm, 4 °C, 20 min) and resuspended in
# 200 mL of buffer A (10 mM Hepes, 0.15 M NaCl, pH7.5). The cells were lyzed by sonication
# (Sonopuls HD-2200) and the cell debris removed by centrifugation (12,000 rpm, 4 °C, 30 min) in
# the presence of Protease Inhibitor Complete (Roche). The clarified sample was loaded onto a 5mL
# HisTrap Fast Flow column (GE Healthcare). The protein was eluted with imidazole (350 mM in
# buffer A) The active fractions were pooled, concentrated by ultrafiltration (Amicon Ultra 15, MW
# cut-off, 10 kDa), desalted (Hi Prep 26/10 Desalting) in buffer B (20mM triethanolamine, 50 µM
# ZnSO4, pH 7.2) to remove imidazole. β -lactamase activity was monitored using the hydrolysis rate
# The authenticity and purity of the final protein sample was confirmed by
# [22] = target: T5, VIM-2
# From the text: VIM-2. The VIM-2 metallo-β-lactamase was purified from a 2 L culture of BL21-DE3/pET9-VIM-
# 2 as previously described3. Briefly, the protein was purified from the culture supernatant,
# concentrated by ultrafiltration, and purified using two anion exchange chromatography steps,
# followed by a final gel filtration step, as described. β-lactamase activity was monitored using the
# The authenticity and purity of the final protein sample was
# confirmed by ESI-MS and SDS-PAGE.
# Protein purification methods and kinetic profile characterization details: the Table reports the
# step-by-step purification procedure for each β-lactamase protein, indicating the β-lactam substrate
# used for kinetic profile characterization (kcat, Km and specificity constant evaluation) and the
# proper concentration of enzyme used in the assay for each BL class.
# T1 sequence (C7C422 29-270 limits assumed): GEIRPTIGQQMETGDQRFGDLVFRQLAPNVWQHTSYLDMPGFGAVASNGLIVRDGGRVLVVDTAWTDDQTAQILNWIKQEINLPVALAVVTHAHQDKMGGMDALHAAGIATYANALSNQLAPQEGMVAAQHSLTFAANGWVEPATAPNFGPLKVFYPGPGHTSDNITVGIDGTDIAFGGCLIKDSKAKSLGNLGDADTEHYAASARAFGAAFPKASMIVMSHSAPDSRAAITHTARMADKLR
# T6 sequence (Q9F663 25-293 limits assumed): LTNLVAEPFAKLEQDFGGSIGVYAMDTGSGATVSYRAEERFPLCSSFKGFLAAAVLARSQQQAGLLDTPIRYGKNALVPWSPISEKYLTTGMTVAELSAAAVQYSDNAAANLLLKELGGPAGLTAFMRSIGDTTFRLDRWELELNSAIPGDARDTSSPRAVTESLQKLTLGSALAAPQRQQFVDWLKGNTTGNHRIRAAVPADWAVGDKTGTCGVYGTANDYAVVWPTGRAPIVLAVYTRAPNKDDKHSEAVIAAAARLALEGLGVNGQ
# T3 sequence (Q9EXV5 entry or part of it): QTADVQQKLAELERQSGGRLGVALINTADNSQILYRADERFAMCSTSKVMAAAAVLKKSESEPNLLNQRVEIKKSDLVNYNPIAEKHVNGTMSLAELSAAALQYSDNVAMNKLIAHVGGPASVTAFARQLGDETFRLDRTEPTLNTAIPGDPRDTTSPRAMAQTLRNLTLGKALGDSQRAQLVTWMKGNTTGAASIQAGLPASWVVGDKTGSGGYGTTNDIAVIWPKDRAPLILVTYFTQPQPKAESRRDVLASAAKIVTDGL
# T4 sequence (Q8RLA6 22-275 limits assumed): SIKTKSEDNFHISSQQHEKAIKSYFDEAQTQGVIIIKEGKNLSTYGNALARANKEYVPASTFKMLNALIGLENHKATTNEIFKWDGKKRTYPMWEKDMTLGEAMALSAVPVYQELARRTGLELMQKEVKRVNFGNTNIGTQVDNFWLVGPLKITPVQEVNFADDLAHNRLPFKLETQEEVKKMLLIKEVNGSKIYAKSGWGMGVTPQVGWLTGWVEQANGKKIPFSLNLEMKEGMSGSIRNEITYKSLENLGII
# T2 sequence (P24735 27-397): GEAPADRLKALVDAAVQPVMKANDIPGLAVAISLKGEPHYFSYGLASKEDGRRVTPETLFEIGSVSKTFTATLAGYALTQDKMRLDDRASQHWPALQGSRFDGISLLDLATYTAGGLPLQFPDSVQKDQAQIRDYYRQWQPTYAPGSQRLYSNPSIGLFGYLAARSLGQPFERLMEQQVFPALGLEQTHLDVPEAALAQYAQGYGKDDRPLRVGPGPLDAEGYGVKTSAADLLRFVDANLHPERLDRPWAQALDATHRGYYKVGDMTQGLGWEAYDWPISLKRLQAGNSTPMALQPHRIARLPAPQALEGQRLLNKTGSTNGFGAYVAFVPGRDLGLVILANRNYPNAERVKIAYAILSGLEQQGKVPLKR
smiles,measurement,setting,value
CC1(C)OB(c2cc3cccc(C(=O)O)c3s2)OC1(C)C [Compound 5],MIC of ceftazidime (CAZ) in combination with compound,[1],512 µg/mL
same,MIC of ceftazidime (CAZ) in combination with compound,[2],64 µg/mL
same,MIC of ceftazidime (CAZ) in combination with compound,[3],32 µg/mL
same,MIC of ceftazidime (CAZ) in combination with compound,[4],32 µg/mL
same,MIC of ceftazidime (CAZ) in combination with compound,[5],4 µg/mL
same,MIC of ceftazidime (CAZ) in combination with compound,[6],16 µg/mL
same,MIC of ceftazidime (CAZ) in combination with compound,[7],64 µg/mL
same,MIC of ceftazidime (CAZ) in combination with compound,[8],16 µg/mL
same,MIC of ceftazidime (CAZ) in combination with compound,[9],32 µg/mL
same,IC50,[10],32.4 ± 7.14 µM
same,MIC of cefotaxime (CTX) in combination with compound,"[11]; CTX-M-15 E. coli, antibiotic:inhibitor 1:1 (w/w)",16 µg/mL
same,MIC reduction of CTX (fold),"[11]; E. coli producing CTX-M-15, CTX combination",4 fold
same,MIC of cefotaxime (CTX) in combination with compound,[12],4 µg/mL
same,MIC of cefotaxime (CTX) in combination with compound,[13],1024 µg/mL
same,MIC of cefotaxime (CTX) in combination with compound,[14],16 µg/mL
same,MIC of cefotaxime (CTX) in combination with compound,[15],1024 µg/mL
same,IC50,[16],1.3 ± 0.01 µM
same,IC50,[17],9.4 ± 3.48 µM
same,IC50,[18],23 ± 4.38 µM
same,IC50,[19],27.7 ± 3.65 µM
same,IC50,[20],5.38 µM and 8.2 µM
"C[C@@H](O)[C@H]1C(=O)N2C(C(=O)O)=C(SCCN=CN)C[C@H]12 [Imipenem, imipenem]",kcat,[21]; β-lactam substrate of NDM-1,520 ± 84 s⁻¹
same,Km,"[21]; β-lactam substrate of NDM-1, enzyme 0.021 µM",58 ± 6 µM
same,kcat,[22]; β-lactam substrate of VIM-2,8 ± 2 s⁻¹
same,Km,"[22]; β-lactam substrate of VIM-2, enzyme 0.043 µM",11 ± 3 µM
